Results published in US20260308185A1, “STAT DEGRADERS AND USES THEREOF” (Recludix Pharma, Inc., priority 2023, published 2026).

System: pSTAT6 (pY641-STAT6) in PBMC
Assay: MSD-pSTAT-PBMC Assay (pSTAT6)
Format: cell-based
Conditions: compound 3 hrs, then 1 ng/mL IL-4 for 10 min
From the text: Cryopreserved Peripheral Blood Mononuclear Cells (PBMC) are from AllCells. Recombinant Human […] and IL-6 are from Peprotech. Mouse monoclonal anti-STAT3 antibody, rabbit monoclonal anti-pY705-STAT3 antibody, rabbit monoclonal Anti-pY641-STAT6 antibody, and lysis buffer are from Cell Signaling Technology (CST). Mouse monoclonal anti-STAT6 antibody is from BioLegend. Assay plates, blocker, and anti-rabbit secondary antibody are from Meso Scale Discovery (MSD).
Cryopreserved PBMCs were thawed out and allowed to recover overnight in IMDM+10% heat-inactivated FBS prior to plating 50,000 (STAT3) or 25,000 (STAT6) cells per well in 96-well U-bottom tissue culture plates. Cells were treated with compound for 3 hrs, then stimulated with 10 ng/mL IL-6 (STAT3) or 1 ng/mL IL-4 (STAT6) for 10 min. Cells were then spun down and washed with ice-cold PBS prior to lysing the cell pellet with 1× lysis buffer (CST) with 1× HALT protease and phosphatase inhibitor cocktail (Thermo). Lysates were transferred to and incubated overnight at 4° C. with shaking in QuickPlex 96-well high bind assay plates (MSD) pre-coated overnight with 30 μL per well of 0.6 μg/mL mouse monoclonal anti-STAT3 antibody (STAT3) or 2 μg/mL mouse monoclonal anti-STAT6 antibody (STAT6) in 1×PBS, and pre-blocked for 1 hour with 3% Blocker-A (MSD). Captured protein in the assay plates were then washed and probed with 25 μL per well of 0.25 μg/ml rabbit monoclonal anti-pY705-STAT3 antibody (STAT3) or 0.18 μg/ml rabbit monoclonal Anti-pY641-STAT6 antibody (STAT6) in 1% Blocker-A for 1 hour at room temperature with shaking, then washed and probed with 25 ul per well of 1 ug/ml Sulfo-TAG Labeled Goat Anti-Rabbit Antibody (MSD) in 1% Blocker-A for 1 hour at room temperature with shaking. Assay plates were then washed and 150 μL of 1× Read Buffer-T (MSD) was added to each well prior to reading on an SQ120 MSD Plate Reader. Assay signal from each sample was subtracted by the signal from unstimulated control wells and normalized to DMSO control wells, IC50 values were calculated using Graph Pad Prism Dose-Response Nonlinear Regression with variable slope. For both pSTAT3 and pSTAT6 A=≤100 nM; B=>100-1000 nM; C=>1000-3000 nM; and D=>3 μM.

| SMILES | IC50 |
| --- | --- |
| CCCC(=O)SCCOP(=O)(OCCSC(=O)CCC)C(F)(F)c1ccc2sc(C(=O)NC3CC4CC4CC4CCC(C(=O)N5CC(C#N)C(c6cccc(OCCOCCOc7cccc8c7CN(C7CCC(=O)NC7=O)C8=O)c6)C5)N4C3=O)cc2c1 [Compound 16, S,S′-(((((2-(((3S,6S,7aS,8aR,9aR)-3-((rel-3S,4R)-3-cyano-4-(3-(2-(2-((2-(2,6-dioxopiperidin-3-yl)-1-oxoisoindolin-4-yl)oxy)ethoxy)ethoxy)phenyl)pyrrolidine-1-carbonyl)-5-oxodecahydro-1H-cyclopropa[d]pyrrolo[1,2-a]azocin-6-yl)carbamoyl)benzo[b]thiophen-5-yl)difluoromethyl)phosphoryl)bis(oxy))bis(ethane-2,1-diyl)) dibutanethioate] | < 100 nM |
| CCCC(=O)SCCOP(=O)(OCCSC(=O)CCC)C(F)(F)c1ccc2sc(C(=O)NC3CC4CC4CC4CCC(C(=O)N5CC(C#N)C(c6cccc(OCCCCOc7ccc(C8CCC(=O)NC8=O)cc7)c6)C5)N4C3=O)cc2c1 [Compound 4, S,S′-(((((2-(((3S,6S,7aS,8aR,9aR)-3-((rel-3S,4R)-3-cyano-4-(3-(4-(4-(2,6-dioxopiperidin-3-yl)phenoxy)butoxy)phenyl)pyrrolidine-1-carbonyl)-5-oxodecahydro-1H-cyclopropa[d]pyrrolo[1,2-a]azocin-6-yl)carbamoyl)benzo[b]thiophen-5-yl)difluoromethyl)phosphoryl)bis(oxy))bis(ethane-2,1-diyl)) dibutanethioate] | 100 to 1000 nM |
| CCCC(=O)SCCOP(=O)(OCCSC(=O)CCC)C(F)(F)c1ccc2sc(C(=O)NC3CC4CC4CC4CCC(C(=O)N5CC(c6ccn(CCCCCCC#Cc7cccc8c7CN(C7CCC(=O)NC7=O)C8=O)c(=O)c6)CC56CC6)N4C3=O)cc2c1 [Compound 6, S,S′-(((((2-(((3S,6S,7aS,8aR,9aR)-3-((6R)-6-(1-(8-(2-(2,6-dioxopiperidin-3-yl)-1-oxoisoindolin-4-yl)oct-7-yn-1-yl)-2-oxo-1,2-dihydropyridin-4-yl)-4-azaspiro[2.4]heptane-4-carbonyl)-5-oxodecahydro-1H-cyclopropa[d]pyrrolo[1,2-a]azocin-6-yl)carbamoyl)benzo[b]thiophen-5-yl)difluoromethyl)phosphoryl)bis(oxy))bis(ethane-2,1-diyl)) dibutanethioate] | < 100 nM |
| CCCC(=O)SCCOP(=O)(OCCSC(=O)CCC)C(F)(F)c1ccc2sc(C(=O)NC3CC4CC4CC4CCC(C(=O)N5CC(C#N)C(c6cccc(OCCCCCC#Cc7cccc8c7CN(C7CCC(=O)NC7=O)C8=O)c6)C5)N4C3=O)cc2c1 [Compound 8, S,S′-(((((2-(((3S,6S,7aS,8aR,9aR)-3-((rel-3S,4R)-3-cyano-4-(3-((7-(2-(2,6-dioxopiperidin-3-yl)-1-oxoisoindolin-4-yl)hept-6-yn-1-yl)oxy)phenyl)pyrrolidine-1-carbonyl)-5-oxodecahydro-1H-cyclopropa[d]pyrrolo[1,2-a]azocin-6-yl)carbamoyl)benzo[b]thiophen-5-yl)difluoromethyl)phosphoryl)bis(oxy))bis(ethane-2,1-diyl)) dibutanethioate] | < 100 nM |
| CCCC(=O)SCCOP(=O)(OCCSC(=O)CCC)C(F)(F)c1ccc2sc(C(=O)NC3CC4CC4CC4CCC(C(=O)N5CC(c6ccn(CCOCCOCCOc7cccc8c7CN(C7CCC(=O)NC7=O)C8=O)c(=O)c6)CC56CC6)N4C3=O)cc2c1 [Compound 18, S,S′-(((((2-(((3S,6S,7aS,8aR,9aR)-3-((6R)-6-(1-(2-(2-(2-((2-(2,6-dioxopiperidin-3-yl)-1-oxoisoindolin-4-yl)oxy)ethoxy)ethoxy)ethyl)-2-oxo-1,2-dihydropyridin-4-yl)-4-azaspiro[2.4]heptane-4-carbonyl)-5-oxodecahydro-1H-cyclopropa[d]pyrrolo[1,2-a]azocin-6-yl)carbamoyl)benzo[b]thiophen-5-yl)difluoromethyl)phosphoryl)bis(oxy))bis(ethane-2,1-diyl)) dibutanethioate] | 100 to 1000 nM |
